Values of other authors in article PMC10892719 (Pharmaceutics, 2024).

Target: T1, Aβ1-42 (Homo sapiens, UniProt P05067)
T1 construct: purchased Genecust, Boynes, France
Settings: thioflavin T fluorescence method; cited from earlier work

T1 sequence (P05067 672-713 limits assumed): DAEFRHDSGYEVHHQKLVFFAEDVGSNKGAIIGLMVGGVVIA

## COc1cc(/C=C/C(=O)CC(=O)/C=C/c2ccc(O)c(OC)c2)ccc1O [Curcumin, curcumin]
  Aβ42 Self-Aggreg. Inhib: 65.7%
